Measurements published in patent publication US20200407712A1, “ARRAY-BASED CYCLIC PEPTIDE LIBRARIES” (HealthTell Inc., priority 2018, published 2020).

How the values were obtained:
[1] = intramolecular disulfide formation by ambient air oxidation of bis-Cys peptides on SiO2 array surface after side-chain deprotection (TFA/TMS-OTf) and NH3-gas DKP detachment; fraction oxidized from MALDI relative peak intensities; details: the molecule shown is the open-chain precursor, none (dry film on SiO2, ambient air), other, 18.0 h, scale: fraction oxidized
human diaphorase (NQO1) = biological target: T1, human diaphorase (NQO1) (Homo sapiens, UniProt P15559); assay: Alexa Fluor 555-diaphorase binding to linear and lactam constrained peptide microarrays; details: 10.0 nM protein applied to the array; for Diaphorase Lactam, log 10 transformed median intensity: lactam constrained library peptide; for Diaphorase Linear, log 10 transformed median intensity: linear library peptide
T1 construct: purchased SigmaAldrich
T1 sequence (P15559 whole entry): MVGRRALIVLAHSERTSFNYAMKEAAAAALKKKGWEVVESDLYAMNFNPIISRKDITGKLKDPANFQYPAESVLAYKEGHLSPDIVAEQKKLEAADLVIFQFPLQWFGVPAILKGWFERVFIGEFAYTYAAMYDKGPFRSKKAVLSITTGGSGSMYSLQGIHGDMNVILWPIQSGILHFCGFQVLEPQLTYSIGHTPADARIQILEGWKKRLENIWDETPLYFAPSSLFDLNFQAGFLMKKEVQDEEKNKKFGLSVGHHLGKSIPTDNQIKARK
From the text: (§1) Diaphorase is NAD(P)H dehydrogenase (UniProtKB: P15559) encoded by the NQO1 gene. Diaphorase has utility as a model enzyme; for which peptide based synthetic affinity agents to diaphorase are required. A 3.3 million feature peptide array was used to identify potential binding partner peptides for diaphorase. Ferredoxin NADP+ Reductase (FNR) and Ferredoxin are included as counter screens for a specific application, while immunoglobulin depleted human serum (Non-Immunoglobulin Serum Components or NISC) was used as a complex mixture to control for generally sticky peptides.
Two wafers from the same synthesis batch were obtained where one wafer was prepared with the lactam chemistry and constrained into a cyclized form. The degree of cyclization was confirmed using the biotinylation assay described in Examples 9, 17, and 19.
(§2) Peptide arrays were prepared for protein binding by pretreating the arrays in PBST for 30 min at […]. Direct labeled diaphorase (Alexa Fluor™ 555), direct labeled FNR (Alexa Fluor™ 555) and biotinylated ferredoxin were applied to the arrays at 1.0 and 10.0 nM along with direct labeled NISC at 0.001 mg/mL for 1 hr at 37° C. Arrays were washed 3× with PBST and Streptavidin-Alexa Fluor™ 555 was applied to the biotinylated ferredoxin and streptavidin alone arrays. All other arrays received PBST and were incubated for 1 hr at 37° C. Arrays were washed with PBST and p53Ab1-Alexa Fluor™ 647 applied to all arrays to illuminate the edge fiducials for 10 min at 37° C. Following the final incubation arrays were washed in PBST and water, dried and imaged on the ImageXpress ([…]). Triplicate arrays were used for the subsequent analysis except for when rejection of an array was necessary due to the presence of artifacts. Data were analyzed using a custom R script.
Intensities plotted are the log 10 transformed median intensity from replicate arrays. Coloring of the points represents the density of features at that intensity using a gray-scale map. Light grey represents areas of low peptide numbers while black represents the intensity having the highest number of peptides. The diagonal line is equivalence line. […] CLUSTAL sequence alignment (FIG. 27B) of the sequences indicated similarities in amino acid composition. Highlighted amino acids are conserved in over 60% of the peptides for that position or are a chemically similar amino acid (ie: F and Y).
The sequences contain similar amino acid usage. Four peptides having the highest degree of cyclization in the quality control assay were identified and binding intensities compared to other library peptides having one or two amino acid substitutions as shown in FIG. 28. Substitutional analysis provides confidence in the array data by indicating which residues are important for binding. Dark grey boxes highlight indicate a residue conserved in more than 60% of the peptides. Light grey boxes highlight indicate chemically similar amino acids to the conserved residue. RFI is the intensity is the median replicate log 10 intensity for the 10.0 nM Diaphorase.

[2] = test system: Ferredoxin NADP+ Reductase (FNR); assay: FNR counter screen on linear and lactam constrained peptide microarrays; assay type: binding; details: 10.0 nM protein applied to the array; for FNR Lactam, log 10 transformed median intensity: lactam constrained library peptide; for FNR Linear, log 10 transformed median intensity: linear library peptide
From the text: as §1, §2

Ferredoxin = assay: Biotinylated ferredoxin counter screen on linear and lactam constrained peptide microarrays; assay type: binding; details: 10.0 nM biotinylated protein, detected with Streptavidin-Alexa Fluor 555; for Ferredoxin Lactam, log 10 transformed median intensity: lactam constrained library peptide; for Ferredoxin Linear, log 10 transformed median intensity: linear library peptide
From the text: as §1, §2

[3] = test system: Non-Immunoglobulin Serum Components (NISC); assay: NISC counter screen on linear and lactam constrained peptide microarrays; assay type: binding, human; details: 0.001 mg/mL NISC applied to the array; for NISC Lactam, log 10 transformed median intensity: lactam constrained library peptide; for NISC Linear, log 10 transformed median intensity: linear library peptide
From the text: as §1, §2
Peptides were also selected based on the difference in log 10 transformed intensities between diaphorase and NISC as the counter screen agent (LFGdiaphorase minus LFGNISC). Intensities for 10.0 nM diaphorase and 0.001 mg/mL NISC are shown in FIG. 29A where intensities plotted are the log 10 transformed median intensity from replicate arrays. Coloring of the points represents the density of features at that intensity using a grey colorscale. Light grey represents areas of low peptide numbers while black represents the intensity having the highest number of peptides. The diagonal line is equivalence line. Selectivity vs NISC was not dependent on cyclization as diaphorase also bound the linear forms for some peptides (Table 4). Three peptides having the highest degree of cyclization in the quality control assay were identified and binding intensities compared to other library peptides having one or two amino acid substitutions (FIG. 30) Each CLUSTAL alignment contains the library peptides having a maximum of two substitutions to the parent peptide. Dark grey highlights indicate a residue conserved in more than 60% of the peptides. Light grey highlights indicate chemically similar amino acids to the conserved residue. The amino acid usage is indicated in the sequence logo above the alignment. Substitutional analysis provides confidence in the array data by indicating which residues are important for binding.

Streptavidin = Streptavidin (Streptomyces avidinii, UniProt P22629); assay: Streptavidin-Alexa Fluor 555 alone on linear and lactam constrained peptide microarrays; assay type: binding; details: for Streptavidin Lactam, log 10 transformed median intensity: lactam constrained library peptide; for Streptavidin Linear, log 10 transformed median intensity: linear library peptide
Sequence of Streptavidin (P22629 25-183, species assumed): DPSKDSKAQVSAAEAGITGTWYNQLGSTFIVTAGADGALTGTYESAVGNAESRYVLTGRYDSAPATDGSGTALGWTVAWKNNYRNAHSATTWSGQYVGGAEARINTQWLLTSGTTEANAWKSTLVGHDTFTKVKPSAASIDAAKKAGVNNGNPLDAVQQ
Experimental: as §2

Compound: COc1cc(OC)c([P+](CC(=O)N[C@@H](CCCCN)C(=O)N[C@@H](CS)C(=O)N2CCC[C@H]2C(=O)NCC(=O)N[C@@H](CS)C(=O)N[C@@H](CC(C)C)C(=O)NCCCC[C@@H]2NC(=O)[C@@H]3CCCN3C2=O)(c2c(OC)cc(OC)cc2OC)c2c(OC)cc(OC)cc2OC)c(OC)c1
- ring closure, fraction oxidized by MALDI ([1]; 14-membered ring): 0.73

Compound: COc1cc(OC)c([P+](CC(=O)N[C@@H](CCCCN)C(=O)N[C@@H](CS)C(=O)N[C@@H](CS)C(=O)N[C@@H](CC(C)C)C(=O)NCCCC[C@@H]2NC(=O)[C@@H]3CCCN3C2=O)(c2c(OC)cc(OC)cc2OC)c2c(OC)cc(OC)cc2OC)c(OC)c1
- ring closure, fraction oxidized by MALDI ([1]; 8-membered ring): 0.78

Compound: COc1cc(OC)c([P+](CC(=O)N[C@@H](CS)C(=O)N2CCC[C@H]2C(=O)NCC(=O)N[C@@H](CS)C(=O)NCCCC[C@@H]2NC(=O)[C@@H]3CCCN3C2=O)(c2c(OC)cc(OC)cc2OC)c2c(OC)cc(OC)cc2OC)c(OC)c1
- ring closure, fraction oxidized by MALDI ([1]; 14-membered ring): 0.77

Compound: COc1cc(OC)c([P+](CC(=O)N[C@@H](CS)C(=O)N[C@@H](CCC(N)=O)C(=O)N2CCC[C@H]2C(=O)NCC(=O)N[C@@H](Cc2ccc(O)cc2)C(=O)N[C@@H](CS)C(=O)NCCCC[C@@H]2NC(=O)[C@@H]3CCCN3C2=O)(c2c(OC)cc(OC)cc2OC)c2c(OC)cc(OC)cc2OC)c(OC)c1
- ring closure, fraction oxidized by MALDI ([1]; 20-membered ring): 0.75

Compound: COc1cc(OC)c([P+](CC(=O)N[C@@H](CS)C(=O)N[C@@H](CCC(N)=O)C(=O)N[C@@H](Cc2ccc(O)cc2)C(=O)N[C@@H](CS)C(=O)NCCCC[C@@H]2NC(=O)[C@@H]3CCCN3C2=O)(c2c(OC)cc(OC)cc2OC)c2c(OC)cc(OC)cc2OC)c(OC)c1
- ring closure, fraction oxidized by MALDI ([1]; 14-membered ring): 0.72

Compound: COc1cc(OC)c([P+](CC(=O)N[C@@H](CS)C(=O)N[C@H](C(=O)N[C@@H](Cc2c[nH]cn2)C(=O)N[C@@H](CS)C(=O)NCCCC[C@@H]2NC(=O)[C@@H]3CCCN3C2=O)[C@@H](C)O)(c2c(OC)cc(OC)cc2OC)c2c(OC)cc(OC)cc2OC)c(OC)c1
- ring closure, fraction oxidized by MALDI ([1]; 14-membered ring): 0.78

Compound: COc1cc(OC)c([P+](CC(=O)N[C@@H](Cc2ccc(O)cc2)C(=O)N[C@@H](CS)C(=O)N2CCC[C@H]2C(=O)NCC(=O)N[C@@H](CS)C(=O)N[C@@H](CO)C(=O)NCCCC[C@@H]2NC(=O)[C@@H]3CCCN3C2=O)(c2c(OC)cc(OC)cc2OC)c2c(OC)cc(OC)cc2OC)c(OC)c1
- ring closure, fraction oxidized by MALDI ([1]; 14-membered ring): 0.76

Compound: COc1cc(OC)c([P+](CC(=O)N[C@@H](Cc2ccc(O)cc2)C(=O)N[C@@H](CS)C(=O)N[C@@H](CS)C(=O)N[C@@H](CO)C(=O)NCCCC[C@@H]2NC(=O)[C@@H]3CCCN3C2=O)(c2c(OC)cc(OC)cc2OC)c2c(OC)cc(OC)cc2OC)c(OC)c1
- ring closure, fraction oxidized by MALDI ([1]; 8-membered ring): 0.7

Compound: TSFFPGYN [library array peptide, tested lactam constrained and linear]
- Diaphorase Lactam, log 10 transformed median intensity (human diaphorase (NQO1)): 4.51
- Diaphorase Linear, log 10 transformed median intensity (human diaphorase (NQO1)): 2.86
- FNR Lactam, log 10 transformed median intensity [2]: 2.62
- FNR Linear, log 10 transformed median intensity [2]: 2.54
- Ferredoxin Lactam, log 10 transformed median intensity (Ferredoxin): 2.71
- Ferredoxin Linear, log 10 transformed median intensity (Ferredoxin): 2.54
- NISC Lactam, log 10 transformed median intensity [3]: 3.47
- NISC Linear, log 10 transformed median intensity [3]: 2.60
- Streptavidin Lactam, log 10 transformed median intensity (Streptavidin): 2.52
- Streptavidin Linear, log 10 transformed median intensity (Streptavidin): 2.53

Compound: TTFFQPSY [library array peptide, tested lactam constrained and linear]
- Diaphorase Lactam, log 10 transformed median intensity (human diaphorase (NQO1)): 4.46
- Diaphorase Linear, log 10 transformed median intensity (human diaphorase (NQO1)): 2.77
- FNR Lactam, log 10 transformed median intensity [2]: 2.55
- FNR Linear, log 10 transformed median intensity [2]: 2.54
- Ferredoxin Lactam, log 10 transformed median intensity (Ferredoxin): 2.78
- Ferredoxin Linear, log 10 transformed median intensity (Ferredoxin): 2.54
- NISC Lactam, log 10 transformed median intensity [3]: 3.35
- NISC Linear, log 10 transformed median intensity [3]: 2.59
- Streptavidin Lactam, log 10 transformed median intensity (Streptavidin): 2.52
- Streptavidin Linear, log 10 transformed median intensity (Streptavidin): 2.54

Compound: TTFSFSTP [library array peptide, tested lactam constrained and linear]
- Diaphorase Lactam, log 10 transformed median intensity (human diaphorase (NQO1)): 4.47
- Diaphorase Linear, log 10 transformed median intensity (human diaphorase (NQO1)): 2.78
- FNR Lactam, log 10 transformed median intensity [2]: 2.62
- FNR Linear, log 10 transformed median intensity [2]: 2.57
- Ferredoxin Lactam, log 10 transformed median intensity (Ferredoxin): 2.69
- Ferredoxin Linear, log 10 transformed median intensity (Ferredoxin): 2.58
- NISC Lactam, log 10 transformed median intensity [3]: 3.33
- NISC Linear, log 10 transformed median intensity [3]: 2.62
- Streptavidin Lactam, log 10 transformed median intensity (Streptavidin): 2.55
- Streptavidin Linear, log 10 transformed median intensity (Streptavidin): 2.54

Compound: TTLFQTPY [library array peptide, tested lactam constrained and linear]
- Diaphorase Lactam, log 10 transformed median intensity (human diaphorase (NQO1)): 4.45
- Diaphorase Linear, log 10 transformed median intensity (human diaphorase (NQO1)): 2.80
- FNR Lactam, log 10 transformed median intensity [2]: 2.63
- FNR Linear, log 10 transformed median intensity [2]: 2.54
- Ferredoxin Lactam, log 10 transformed median intensity (Ferredoxin): 2.66
- Ferredoxin Linear, log 10 transformed median intensity (Ferredoxin): 2.54
- NISC Lactam, log 10 transformed median intensity [3]: 3.28
- NISC Linear, log 10 transformed median intensity [3]: 2.69
- Streptavidin Lactam, log 10 transformed median intensity (Streptavidin): 2.53
- Streptavidin Linear, log 10 transformed median intensity (Streptavidin): 2.52

Compound: TYPGVYPS [library array peptide, tested lactam constrained and linear]
- Diaphorase Lactam, log 10 transformed median intensity (human diaphorase (NQO1)): 4.40
- Diaphorase Linear, log 10 transformed median intensity (human diaphorase (NQO1)): 2.75
- FNR Lactam, log 10 transformed median intensity [2]: 2.59
- FNR Linear, log 10 transformed median intensity [2]: 2.54
- Ferredoxin Lactam, log 10 transformed median intensity (Ferredoxin): 2.69
- Ferredoxin Linear, log 10 transformed median intensity (Ferredoxin): 2.54
- NISC Lactam, log 10 transformed median intensity [3]: 3.16
- NISC Linear, log 10 transformed median intensity [3]: 2.58
- Streptavidin Lactam, log 10 transformed median intensity (Streptavidin): 2.53
- Streptavidin Linear, log 10 transformed median intensity (Streptavidin): 2.51

Compound: TYPIYGPA [library array peptide, tested lactam constrained and linear]
- Diaphorase Lactam, log 10 transformed median intensity (human diaphorase (NQO1)): 4.46
- Diaphorase Linear, log 10 transformed median intensity (human diaphorase (NQO1)): 2.77
- FNR Lactam, log 10 transformed median intensity [2]: 2.59
- FNR Linear, log 10 transformed median intensity [2]: 2.53
- Ferredoxin Lactam, log 10 transformed median intensity (Ferredoxin): 2.80
- Ferredoxin Linear, log 10 transformed median intensity (Ferredoxin): 2.55
- NISC Lactam, log 10 transformed median intensity [3]: 3.43
- NISC Linear, log 10 transformed median intensity [3]: 2.59
- Streptavidin Lactam, log 10 transformed median intensity (Streptavidin): 2.54
- Streptavidin Linear, log 10 transformed median intensity (Streptavidin): 2.52

Compound: VPSSYNLN [library array peptide, tested lactam constrained and linear]
- Diaphorase Lactam, log 10 transformed median intensity (human diaphorase (NQO1)): 4.38
- Diaphorase Linear, log 10 transformed median intensity (human diaphorase (NQO1)): 3.82
- FNR Lactam, log 10 transformed median intensity [2]: 2.58
- FNR Linear, log 10 transformed median intensity [2]: 2.57
- Ferredoxin Lactam, log 10 transformed median intensity (Ferredoxin): 2.6
- Ferredoxin Linear, log 10 transformed median intensity (Ferredoxin): 2.58
- NISC Lactam, log 10 transformed median intensity [3]: 2.68
- NISC Linear, log 10 transformed median intensity [3]: 2.65
- Streptavidin Lactam, log 10 transformed median intensity (Streptavidin): 2.57
- Streptavidin Linear, log 10 transformed median intensity (Streptavidin): 2.57
